The nature of series [1]: Solubility of CBN in crystallization solvents (solvent screen). The class given is physicochemical. As to conditions: organic solvent or mixture, RT.
Series [2] concerns the target T1, CB1 receptor (Homo sapiens, UniProt P21554). Conditions: fold lower affinity than THC; cited from earlier work.
Another series concerns the target CB2 receptor (Homo sapiens, UniProt P34972). As to conditions: fold lower affinity than THC; cited from earlier work.
The target in series [3] is T1, CB1 receptor. As to conditions: cited from earlier work.

≈ marks a conversion by molar mass, not a printed value.

T1 sequence (P21554 whole entry): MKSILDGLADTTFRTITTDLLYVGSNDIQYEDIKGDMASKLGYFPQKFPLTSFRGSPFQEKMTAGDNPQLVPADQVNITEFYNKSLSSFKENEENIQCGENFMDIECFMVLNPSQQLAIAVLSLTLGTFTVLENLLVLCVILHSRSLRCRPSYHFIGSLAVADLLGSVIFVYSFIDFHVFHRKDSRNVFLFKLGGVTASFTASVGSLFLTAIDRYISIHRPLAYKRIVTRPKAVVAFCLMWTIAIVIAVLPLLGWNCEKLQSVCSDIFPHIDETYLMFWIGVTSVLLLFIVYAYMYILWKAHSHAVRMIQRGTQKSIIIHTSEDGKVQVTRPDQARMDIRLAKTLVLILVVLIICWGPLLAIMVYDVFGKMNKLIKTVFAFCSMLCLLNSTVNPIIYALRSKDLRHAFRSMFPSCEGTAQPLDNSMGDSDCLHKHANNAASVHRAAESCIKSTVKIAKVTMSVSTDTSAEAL
Chain of CB2 receptor (P34972 whole entry): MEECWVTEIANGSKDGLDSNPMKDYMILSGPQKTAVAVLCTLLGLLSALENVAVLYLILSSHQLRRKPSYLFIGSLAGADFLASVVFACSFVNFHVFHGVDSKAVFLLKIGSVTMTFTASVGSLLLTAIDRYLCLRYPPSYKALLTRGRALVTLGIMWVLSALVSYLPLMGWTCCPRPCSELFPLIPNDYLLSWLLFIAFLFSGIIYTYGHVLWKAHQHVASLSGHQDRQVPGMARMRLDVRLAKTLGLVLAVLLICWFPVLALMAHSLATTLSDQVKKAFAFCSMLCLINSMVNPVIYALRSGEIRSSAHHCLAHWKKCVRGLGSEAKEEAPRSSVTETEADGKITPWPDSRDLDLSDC

For the compound `CCCCCc1cc(O)c2c(c1)OC(C)(C)c1ccc(C)cc1-2` [CBN, cannabinol], the solubility (in general, the concentration that dissolves in the medium under given conditions) in series [1] (solvent Iso-Octane) came out at 24.9 mg/mL (≈ 80.2 mM); in series [1] (solvent n-Heptane), 33.4 mg/mL (≈ 108 mM). Besides, the “Affinity lower relative to THC” value on CB1 receptor [2] is given as 7- to 8 fold; on CB2 receptor it was “about 3 fold”. Also, the “Type of activity at CB1 receptors” value at CB1 receptor [3] was “partial agonist”.

These data come from patent US12338223B2 (PURISYS LLC, priority 2019, dated 2025).
